According to ChEMBL document CHEMBL1255394, “Antimicrobial susceptibilities of multidrug-resistant Campylobacter jejuni and C. coli strains: in vitro activities of 20 antimicrobial agents” (2010):
Values after ≈ are worked out from the molar mass of the structure shown.

What was measured:
Assay type in all cases: functional
[1] = system: Campylobacter jejuni; assay: Antibacterial activity against Campylobacter jejuni assessed as resistant isolates by disk diffusion method
[2] = system: Campylobacter coli; assay: Antibacterial activity against Campylobacter coli assessed as resistant isolates by disk diffusion method
[3] = system: Campylobacter sp.; assay: Antibacterial activity against Campylobacter sp. assessed as resistance breakpoint by CLSI method
[4] = system: Campylobacter sp.; assay: Antibacterial activity against erythromycin resistant Campylobacter sp. by agar plate dilution method
[5] = system: Campylobacter sp.; assay: Antibacterial activity against erythromycin susceptible Campylobacter sp. by agar plate dilution method
[6] = system: Campylobacter sp.; assay: Antibacterial activity against erythromycin resistant Campylobacter sp. assessed as resistance breakpoint by CLSI method
[7] = system: Campylobacter sp.; assay: Antibacterial activity against erythromycin susceptible Campylobacter sp. assessed as resistance breakpoint by CLSI method
[8] = system: Campylobacter sp.; assay: Antimicrobial activity against erythromycin susceptible Campylobacter sp. assessed as clear zone of inhibition by disk diffusion method
[9] = system: Campylobacter sp.; assay: Antimicrobial activity against erythromycin resistant Campylobacter sp. assessed as clear zone of inhibition by disk diffusion method
[10] = system: Campylobacter sp.; assay: Antibacterial activity against Campylobacter sp. assessed as resistance breakpoint by EUCAST method
[11] = system: Campylobacter sp.; assay: Antibacterial activity against erythromycin resistant Campylobacter sp. after 48 hrs by Etest method
[12] = system: Campylobacter sp.; assay: Antibacterial activity against erythromycin susceptible Campylobacter sp. after 48 hrs by Etest method

Row | Compound | Activity [1] [%] | Activity [2] [%] | Activity [3] [µg/mL] | MIC50 [4] [µg/mL] | MIC90 [4] [µg/mL] | MIC50 [5] [µg/mL] | MIC90 [5] [µg/mL] | Activity [6] [%] | Activity [7] [%] | inhibition zone (IZ) [8] [mm] | inhibition zone (IZ) [9] | Activity [10] [µg/mL] | MIC50 [11] [ng/mL] | MIC90 [11] [µg/mL] | MIC50 [12] [ng/mL] | MIC90 [12] [µg/mL]
1 | CCn1cc(C(=O)O)c(=O)c2ccc(C)nc21 [NALIDIXIC ACID] | 41.4 | 83.3 | 32 | 128 (≈ 551 µM) | 128 (≈ 551 µM) | 2 (≈ 8.61 µM) | 8 (≈ 34.4 µM) | 94.7 | 40.1 |  |  |  |  |  |  | 
2 | COc1c(N2C[C@@H]3CCCN[C@@H]3C2)c(F)cc2c(=O)c(C(=O)O)cn(C3CC3)c12 [MOXIFLOXACIN] |  |  |  | 2 (≈ 4.98 µM) | 16 (≈ 39.9 µM) | ≤ 0.03 | 0.125 (≈ 0.311 µM) |  |  |  |  |  |  |  |  | 
3 | CC[C@H]1OC(=O)[C@H](C)C(=O)[C@H](C)[C@@H](O[C@@H]2O[C@H](C)C[C@H](N(C)C)[C@H]2O)[C@](C)(OC)C[C@@H](C)C(=O)[C@H](C)[C@H]2N(CCCCn3cnc(-c4cccnc4)c3)C(=O)O[C@]12C [TELITHROMYCIN] |  |  |  | 32 (≈ 39.4 µM) | > 128 | 0.064 (≈ 0.0788 µM) | 0.25 (≈ 0.308 µM) |  |  |  |  |  |  |  |  | 
4 | CCn1cc(C(=O)O)c(=O)c2cc(F)c(N3CCNCC3)cc21 [NORFLOXACIN] | 40.9 | 83.3 | 16 | 64 (≈ 200 µM) | > 64 | 8 (≈ 25.1 µM) | 256 (≈ 802 µM) | 94.7 | 39.6 |  |  |  |  |  |  | 
5 | CC1(C)S[C@@H]2[C@H](NC(=O)[C@H](N)c3ccccc3)C(=O)N2[C@H]1C(=O)O [AMPICILLIN] | 18.2 | 22.2 | 32 | 8 (≈ 22.9 µM) | 128 (≈ 366 µM) | 0.5 (≈ 1.43 µM) | 32 (≈ 91.6 µM) | 36.8 | 16.6 |  |  |  |  |  |  | 
6 | C[C@H]1COc2c(N3CCN(C)CC3)c(F)cc3c(=O)c(C(=O)O)cn1c23.C[C@H]1COc2c(N3CCN(C)CC3)c(F)cc3c(=O)c(C(=O)O)cn1c23.O [LEVOFLOXACIN] | 34.5 | 72.2 | 8 | 8 |  | 1 | > 64 | 78.9 | 33.6 |  |  |  |  |  |  | 
7 | GENTAMICIN | 0.9 | 0 | 16 | 0.5 | 0.5 | 4 | 64 | 0 | 0.9 |  |  |  |  |  |  | 
8 | CCC[C@@H]1C[C@@H](C(=O)N[C@@H]([C@H]2O[C@H](SC)[C@H](O)[C@@H](O)[C@H]2O)[C@H](C)Cl)N(C)C1 [CLINDAMYCIN] | 5 | 50 | 8 | 64 (≈ 151 µM) | 64 (≈ 151 µM) | 2 (≈ 4.71 µM) | 4 (≈ 9.41 µM) | 89.5 | 1.4 |  |  |  |  |  |  | 
9 | O=C(O)c1cn(C2CC2)c2cc(N3CCNCC3)c(F)cc2c1=O [CIPROFLOXACIN] | 42.4 |  |  | 16 (≈ 48.3 µM) | > 32 | 0.5 (≈ 1.51 µM) | 1 (≈ 3.02 µM) |  |  |  |  |  |  |  |  | 
10 | O=C(N[C@H](CO)[C@H](O)c1ccc([N+](=O)[O-])cc1)C(Cl)Cl [CHLORAMPHENICOL] | 0.5 | 0 | 32 | 4 (≈ 12.4 µM) | 16 (≈ 49.5 µM) | 0.125 (≈ 0.387 µM) | 8 (≈ 24.8 µM) | 0 | 0.5 |  |  |  |  |  |  | 
11 | CC[C@H]1OC(=O)[C@H](C)[C@@H](O[C@H]2C[C@@](C)(OC)[C@@H](O)[C@H](C)O2)[C@H](C)[C@@H](O[C@@H]2O[C@H](C)C[C@H](N(C)C)[C@H]2O)[C@](C)(O)C[C@@H](C)C(=O)[C@H](C)[C@@H](O)[C@]1(C)O [ERYTHROMYCIN] | 4.5 | 50 | 16 | > 128 | > 128 | 2 (≈ 2.73 µM) | 4 (≈ 5.45 µM) | 100 | 0 | >23 | <=23 mm |  |  |  |  | 
12 | CN(C)[C@@H]1C(O)=C(C(N)=O)C(=O)[C@@]2(O)C(O)=C3C(=O)c4c(O)cccc4[C@@](C)(O)[C@H]3C[C@@H]12 [TETRACYCLINE] | 28.1 | 66.7 | 16 | 128 (≈ 288 µM) | > 128 | 2 (≈ 4.5 µM) | 8 (≈ 18 µM) | 73.7 | 26.9 |  |  |  |  |  |  | 
13 | CC1COc2c(N3CCN(C)CC3)c(F)cc3c(=O)c(C(=O)O)cn1c23 (centres undefined) [OFLOXACIN] | 40.9 | 83.3 | 8 | 16 (≈ 44.3 µM) | 64 (≈ 177 µM) | 0.25 (≈ 0.692 µM) | 32 (≈ 88.6 µM) | 84.2 | 40.6 |  |  |  |  |  |  | 
14 | C[C@@H](O)[C@H]1C(=O)N2C(C(=O)O)=C(SCCNC=N)C[C@H]12 [IMIPENEM ANHYDROUS] | 0 | 0 | 16 | 0.25 (≈ 0.835 µM) | 0.5 (≈ 1.67 µM) | 0.016 (≈ 0.0534 µM) | 0.25 (≈ 0.835 µM) | 0 | 0 |  |  |  |  |  |  | 
15 | CC[C@H]1OC(=O)[C@H](C)[C@@H](O[C@H]2C[C@@](C)(OC)[C@@H](O)[C@H](C)O2)[C@H](C)[C@@H](O[C@@H]2O[C@H](C)C[C@H](N(C)C)[C@H]2O)[C@](C)(O)C[C@@H](C)CN(C)[C@H](C)[C@@H](O)[C@]1(C)O [AZITHROMYCIN] | 5 | 38.9 | 4 | > 128 | > 128 | 0.25 (≈ 0.334 µM) | 0.5 (≈ 0.668 µM) | 89.5 | 0.5 |  |  |  |  |  |  | 
16 | CN(C)c1cc(NC(=O)CNC(C)(C)C)c(O)c2c1C[C@H]1C[C@H]3[C@H](N(C)C)C(O)=C(C(N)=O)C(=O)[C@@]3(O)C(O)=C1C2=O [TIGECYCLINE] | 0 | 0 | 0.5 |  |  |  |  | 0 | 0 |  |  | >0.5 | 8 (≈ 0.0137 µM) | 0.023 (≈ 0.0393 µM) | 8 (≈ 0.0137 µM) | 0.032 (≈ 0.0546 µM)
17 | N[C@@H]1CN(c2c(F)cc3c(=O)c(C(=O)O)cn([C@@H]4C[C@@H]4F)c3c2Cl)CC12CC2 [SITAFLOXACIN ANHYDROUS] |  |  |  | 0.125 (≈ 0.305 µM) | 0.5 (≈ 1.22 µM) | 0.5 (≈ 1.22 µM) | 1 (≈ 2.44 µM) |  |  |  |  |  |  |  |  | 
18 | C[C@@H](O)[C@H]1C(=O)N2C(C(=O)O)=C(S[C@@H]3CN[C@H](C(=O)N(C)C)C3)[C@H](C)[C@H]12 [MEROPENEM] | 0 | 0 | 16 | ≤ 0.03 | 0.25 (≈ 0.652 µM) | 4 (≈ 10.4 µM) | 64 (≈ 167 µM) | 0 | 0 |  |  |  |  |  |  | 
19 | CC[C@H]1OC(=O)[C@H](C)[C@@H](O[C@H]2C[C@@](C)(OC)[C@@H](O)[C@H](C)O2)[C@H](C)[C@@H](O[C@@H]2O[C@H](C)C[C@H](N(C)C)[C@H]2O)[C@](C)(OC)C[C@@H](C)C(=O)[C@H](C)[C@@H](O)[C@]1(C)O [CLARITHROMYCIN] |  |  |  | > 128 | > 128 | 0.25 (≈ 0.334 µM) | 128 (≈ 171 µM) |  |  |  |  |  |  |  |  | 
